The text below walks through data of patent US20240158418A1 (C4 Therapeutics, Inc., priority 2021, published 2024).

Where two headings read alike, the source gives them in different places.

Holding throughout (type): cell-based
The target of assay [1] is T1, EGFR L858R-T790M-C797S (Homo sapiens, UniProt P00533, C797S/L858R/T790M).
T1 construct: generated using CRISPR technology to introduce the additional C797S mutation by Horizon Discovery; host or cells: NCI-H1975+CS (CRISPR knock-in of C797S)
T1 sequence (P00533 25-1210 T790M/C797S/L858R): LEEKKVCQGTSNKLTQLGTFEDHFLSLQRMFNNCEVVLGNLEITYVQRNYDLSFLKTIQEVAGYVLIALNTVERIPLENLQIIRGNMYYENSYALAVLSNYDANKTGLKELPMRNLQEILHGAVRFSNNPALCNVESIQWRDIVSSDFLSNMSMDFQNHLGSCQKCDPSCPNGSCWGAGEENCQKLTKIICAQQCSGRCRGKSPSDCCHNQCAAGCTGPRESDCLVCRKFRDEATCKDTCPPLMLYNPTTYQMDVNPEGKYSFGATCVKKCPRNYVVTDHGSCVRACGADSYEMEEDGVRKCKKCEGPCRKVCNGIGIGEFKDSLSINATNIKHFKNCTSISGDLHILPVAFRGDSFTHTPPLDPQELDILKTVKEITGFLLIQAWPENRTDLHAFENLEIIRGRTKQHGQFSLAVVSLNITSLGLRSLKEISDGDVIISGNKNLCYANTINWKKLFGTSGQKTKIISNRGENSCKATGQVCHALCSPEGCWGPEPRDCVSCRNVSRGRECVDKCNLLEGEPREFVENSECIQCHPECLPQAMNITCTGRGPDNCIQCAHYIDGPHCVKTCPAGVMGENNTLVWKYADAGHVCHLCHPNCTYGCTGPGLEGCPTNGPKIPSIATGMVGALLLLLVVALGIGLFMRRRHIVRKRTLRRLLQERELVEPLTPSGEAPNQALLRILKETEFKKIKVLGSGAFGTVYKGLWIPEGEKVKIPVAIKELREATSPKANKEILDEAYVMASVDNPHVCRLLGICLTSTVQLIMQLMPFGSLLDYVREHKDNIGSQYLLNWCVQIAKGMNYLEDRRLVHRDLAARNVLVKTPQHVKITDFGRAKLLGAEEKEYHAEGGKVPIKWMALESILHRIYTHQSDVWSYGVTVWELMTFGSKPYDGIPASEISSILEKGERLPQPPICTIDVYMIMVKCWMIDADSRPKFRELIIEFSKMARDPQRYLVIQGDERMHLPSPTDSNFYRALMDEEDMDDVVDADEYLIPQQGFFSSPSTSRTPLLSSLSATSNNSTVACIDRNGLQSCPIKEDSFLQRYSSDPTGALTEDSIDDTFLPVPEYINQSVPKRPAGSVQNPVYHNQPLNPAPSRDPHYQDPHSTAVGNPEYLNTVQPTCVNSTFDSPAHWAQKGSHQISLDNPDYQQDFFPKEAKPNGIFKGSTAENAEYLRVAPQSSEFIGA
Description: EGFR degradation, Total EGFR (L858R-specific) HTRF, NCI-H1975+CS. The conditions noted are these: Table 9B; NCI-H1975 C797S clone, 6 hours, Total EGFR HTRF; read-out: H1975 C797S clone EGFR DC50. The source says:
(§1) NCI-H1975 (harboring EGFR heterozygous L858R-T790M mutations) and NCI-H3255 (harboring EGFR heterozygous L858R mutation) were purchased from ATCC and NCI, respectively. NCI-H1975+CS (harboring EGFR heterozygous L858R-T790M-C797S mutations) was generated using CRISPR technology to introduce the additional C797S mutation by Horizon Discovery. A431 (harboring EGFR wildtype) was purchased from ATCC. RPMI 1640 no-phenol red medium and fetal bovine serum (FBS) were purchased from Gibco (Grand Island, NY, USA). Cell culture flasks and 384-well microplates were acquired from VWR (Radnor, PA, USA). Phosphorylated (pY1068) EGFR and Total EGFR (using L858R-specific detection antibody and pan-EGFR antibody for EGFR mutant cell lines and EGFR wild-type cell lines, respectively) HTRF assay kits were purchased from Cisbio (Bedford, MA, USA).
(§2) Degradation of EGFR protein containing L858R mutation or wild-type was determined based on quantification of FRET signal using a Total EGFR (L858R-specific or pan-EGFR detecting) HTRF assay kit. Phospho-EGFR (pEGFR) inhibition was determined based on quantification of FRET signal using a pY1068 EGFR HTRF assay kit. In separate assay plates, test compounds were added to the 384-well plate from a top concentration of 10 μM with 11 points, half log titration in duplicates. For each assay, 12.5 uL of cells suspended in assay media (RPMI 1640 no-phenol red medium+10% FBS) at cell densities indicated for each cell line in Table 8 below were dispensed using a multi-channel pipette to 384-well low volume white HTRF microplates containing a duplicate concentration range of test compounds and DMSO controls. The plates were kept at 37° C. with 5% CO2 for 6 hours and then incubated with either phospho EGFR or Total EGFR HTRF detection antibodies according to the cell line and EGFR mutant being assayed. Cells treated in the absence of the test compound were the negative control. Positive control was set by wells containing all reagents but no cells. FRET signal was acquired on EnVision™ Multilabel Reader (PerkinElmer, Santa Clara, CA, USA). Compound concentration that achieves 50% degradation and inhibition was reported as DC50 and IC50, respectively.

In assay [2] the target is T2, EGFR L858R-T790M (Homo sapiens, UniProt P00533, L858R/T790M).
T2 construct: NCI-H1975 (harboring EGFR heterozygous L858R-T790M mutations); host or cells: NCI-H1975
T2 sequence (P00533 25-1210 T790M/L858R): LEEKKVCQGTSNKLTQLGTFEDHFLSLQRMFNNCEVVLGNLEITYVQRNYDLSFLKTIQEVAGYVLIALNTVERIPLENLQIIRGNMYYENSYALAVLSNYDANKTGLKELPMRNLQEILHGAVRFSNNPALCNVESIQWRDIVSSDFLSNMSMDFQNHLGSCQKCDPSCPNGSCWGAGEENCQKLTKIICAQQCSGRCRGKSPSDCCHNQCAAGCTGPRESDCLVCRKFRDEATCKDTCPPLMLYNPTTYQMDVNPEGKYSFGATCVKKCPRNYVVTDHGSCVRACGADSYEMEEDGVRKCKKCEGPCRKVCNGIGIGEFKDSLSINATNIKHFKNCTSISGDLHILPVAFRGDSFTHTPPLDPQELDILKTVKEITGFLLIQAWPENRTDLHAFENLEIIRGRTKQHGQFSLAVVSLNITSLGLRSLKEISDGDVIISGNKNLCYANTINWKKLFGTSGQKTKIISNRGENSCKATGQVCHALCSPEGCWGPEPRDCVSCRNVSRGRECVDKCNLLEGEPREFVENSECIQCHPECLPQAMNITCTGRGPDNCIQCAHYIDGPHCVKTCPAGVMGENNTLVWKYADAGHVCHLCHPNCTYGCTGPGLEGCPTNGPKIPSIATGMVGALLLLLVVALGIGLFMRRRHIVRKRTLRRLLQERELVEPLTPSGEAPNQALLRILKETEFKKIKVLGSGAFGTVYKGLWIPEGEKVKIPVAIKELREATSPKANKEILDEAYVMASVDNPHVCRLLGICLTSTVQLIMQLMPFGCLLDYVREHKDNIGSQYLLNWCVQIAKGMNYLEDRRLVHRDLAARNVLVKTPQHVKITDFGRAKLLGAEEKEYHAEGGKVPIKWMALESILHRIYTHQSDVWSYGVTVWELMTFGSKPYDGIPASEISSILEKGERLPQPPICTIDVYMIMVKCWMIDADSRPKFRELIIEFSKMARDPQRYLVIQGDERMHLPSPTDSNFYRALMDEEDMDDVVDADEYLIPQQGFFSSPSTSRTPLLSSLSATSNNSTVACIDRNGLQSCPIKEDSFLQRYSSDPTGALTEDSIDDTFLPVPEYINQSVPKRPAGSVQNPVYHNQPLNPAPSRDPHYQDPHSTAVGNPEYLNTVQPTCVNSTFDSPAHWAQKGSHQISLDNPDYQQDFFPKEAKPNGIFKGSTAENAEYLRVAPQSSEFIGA
Description: EGFR degradation, Total EGFR (L858R-specific) HTRF, NCI-H1975. The conditions noted are these: NCI-H1975 cells, 6 hours, Total EGFR HTRF, read-out: H1975 EGFR DC50. In a few lines: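 FRET signal from HTRF kits measured phospho-EGFR at pY1068 or total EGFR after 6 h treatment at 37 °C. Compounds ran as 11-point half-log dilutions from 10 μM in duplicate, in cells in phenol red-free RPMI with 10% FBS. Concentrations giving 50% inhibition or degradation were reported as IC50 or DC50.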

Assay [3] deals with EGFR L858R (Homo sapiens, UniProt P00533, L858R). The experiment in a line: EGFR degradation, Total EGFR (L858R-specific) HTRF, NCI-H3255. Set-up: NCI-H3255 (harboring EGFR heterozygous L858R mutation); host or cells: NCI-H3255. Conditions: NCI-H3255 cells, 6 hours, Total EGFR HTRF, read-out: H3255 EGFR DC50.
EGFR L858R, sequence (P00533 25-1210 L858R): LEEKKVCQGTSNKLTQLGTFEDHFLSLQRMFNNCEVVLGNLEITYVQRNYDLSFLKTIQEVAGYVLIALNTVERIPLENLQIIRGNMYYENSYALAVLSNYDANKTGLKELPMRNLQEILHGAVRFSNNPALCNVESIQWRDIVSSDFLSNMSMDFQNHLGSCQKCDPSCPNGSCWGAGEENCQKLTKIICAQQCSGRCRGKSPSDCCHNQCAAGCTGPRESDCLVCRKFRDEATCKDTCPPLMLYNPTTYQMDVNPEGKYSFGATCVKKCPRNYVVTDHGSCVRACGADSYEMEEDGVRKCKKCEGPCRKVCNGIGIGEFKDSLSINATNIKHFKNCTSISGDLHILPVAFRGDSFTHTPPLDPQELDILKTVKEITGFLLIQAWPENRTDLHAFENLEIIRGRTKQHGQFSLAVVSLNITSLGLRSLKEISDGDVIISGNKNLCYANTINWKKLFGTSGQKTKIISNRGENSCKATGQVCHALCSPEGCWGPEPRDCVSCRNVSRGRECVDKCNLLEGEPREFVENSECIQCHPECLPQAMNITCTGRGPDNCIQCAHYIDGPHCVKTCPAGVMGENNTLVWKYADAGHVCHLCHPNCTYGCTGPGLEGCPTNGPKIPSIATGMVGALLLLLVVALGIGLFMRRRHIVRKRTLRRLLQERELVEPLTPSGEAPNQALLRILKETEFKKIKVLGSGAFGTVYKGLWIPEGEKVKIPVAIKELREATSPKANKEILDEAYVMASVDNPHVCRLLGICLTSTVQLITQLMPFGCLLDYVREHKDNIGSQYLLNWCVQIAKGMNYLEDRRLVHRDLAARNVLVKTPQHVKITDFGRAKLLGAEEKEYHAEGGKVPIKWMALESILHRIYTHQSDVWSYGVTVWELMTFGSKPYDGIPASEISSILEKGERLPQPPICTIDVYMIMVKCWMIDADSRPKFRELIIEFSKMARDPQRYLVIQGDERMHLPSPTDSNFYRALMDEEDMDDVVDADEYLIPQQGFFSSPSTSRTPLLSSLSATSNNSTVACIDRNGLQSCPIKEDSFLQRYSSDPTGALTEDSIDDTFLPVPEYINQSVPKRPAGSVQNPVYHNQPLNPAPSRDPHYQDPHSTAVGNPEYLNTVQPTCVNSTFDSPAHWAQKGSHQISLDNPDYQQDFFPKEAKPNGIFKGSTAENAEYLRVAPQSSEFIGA
Description: as §1, §2
(TR-FRET usually uses a lanthanide donor and a delayed reading to cut background.)

In general, DC50 refers to the concentration giving 50% degradation. `O=C1CCN(c2ccc(N3CCC(O)(CC(=O)N4CC5(C4)CN(c4ccc(-c6cc(F)c7cn(C(C(=O)Nc8nccs8)c8ncn9c8CCC9)nc7c6)cc4)C5)CC3)c(F)c2)C(=O)N1` (stereo not shown) [Compound 147]: the DC50 in assay [1] is under 50 nM. Still for that read-out and setting: for `O=C1CC[C@H](Nc2ccc(C3CCN(C(=O)CC4(O)CCN(c5ccc(-c6ccc7cn(C(C(=O)Nc8nccs8)c8ncn9c8CCC9)nc7c6F)cn5)CC4)CC3)c(F)c2)C(=O)N1` (stereo partly drawn) [Compound 151, 2-(6,7-dihydro-5H-pyrrolo[1,2-c]imidazol-1-yl)-2-[6-[6-[4-[2-[4-[4-[[(3S)-2,6-dioxo-3-piperidyl]amino]-2-fluoro-phenyl]-1-piperidyl]-2-oxo-ethyl]-4-hydroxy-1-piperidyl]-3-pyridyl]-7-fluoro-indazol-2-yl]-N-thiazol-2-yl-acetamide] the value was under 50 nM.

Regarding `O=C1CCC(Nc2ccc(C3CCC(CC(=O)N4CCN(c5ccc(-c6cc(F)c7c(c6)C(=O)N(C(C(=O)Nc6nccs6)c6ncn8c6CCC8)C7)cc5)CC4)CC3)cc2)C(=O)N1` (stereo not shown) [Compound 177, 2-(6,7-dihydro-5H-pyrrolo[1,2-c]imidazol-1-yl)-2-(6-(4-(4-(2-(4-(4-((2,6-dioxopiperidin-3-yl)amino)phenyl)cyclohexyl)acetyl)piperazin-1-yl)phenyl)-4-fluoro-1-oxoisoindolin-2-yl)-N-(thiazol-2-yl)acetamide], the DC50 in assay [2] (Table 9B) and in assay [3] (Table 9B) was under 50 nM in each case.

As to `O=C1CC[C@H](Nc2ccc(C3CCN(CC(=O)N4CCCN(c5ccc(-c6cc(F)c7c(c6)C(=O)N(C(C(=O)Nc6nccs6)c6ncn8c6CCC8)C7)cc5)CC4)CC3)c(F)c2)C(=O)N1` (stereo partly drawn) [Compound 84, 2-(6,7-dihydro-5H-pyrrolo[1,2-c]imidazol-1-yl)-2-(6-(4-(4-(2-(4-(4-(((S)-2,6-dioxopiperidin-3-yl)amino)-2-fluorophenyl)piperidin-1-yl)acetyl)-1,4-diazepan-1-yl)phenyl)-4-fluoro-1-oxoisoindolin-2-yl)-N-(thiazol-2-yl)acetamide], the DC50 in assay [2] (Table 9B) and in assay [3] (Table 9B) was 50 to 150 nM in each case. As for `Cn1nc(N2CCC(=O)NC2=O)c2ccc(C3CCN(CC(=O)N4CC5(C4)CN(c4ccc(-c6cc(F)c7c(c6)C(=O)N(C(C(=O)Nc6nccs6)c6ncn8c6CCC8)C7)cc4)C5)CC3)cc21` (stereo not shown) [Compound 49, 2-(6,7-dihydro-5H-pyrrolo[1,2-c]imidazol-1-yl)-2-[6-[4-[2-[2-[4-[3-(2,4-dioxohexahydropyrimidin-1-yl)-1-methyl-indazol-6-yl]-1-piperidyl]acetyl]-2,6-diazaspiro[3.3]heptan-6-yl]phenyl]-4-fluoro-1-oxo-isoindolin-2-yl]-N-thiazol-2-yl-acetamide], the DC50 in assay [2] (Table 9A) and in assay [3] (Table 9A) was under 50 nM each time. Turning to `O=C1CCC(Nc2ccc(C3CCN(CC(=O)N4CCN(c5ccc(-c6cc(F)c7c(c6)C(=O)N(C(C(=O)Nc6nccs6)c6ncn8c6CCC8)C7)cc5)CC4)CC3)nc2)C(=O)N1` (stereo not shown) [Compound 179, 2-(6,7-dihydro-5H-pyrrolo[1,2-c]imidazol-1-yl)-2-[6-[4-[4-[2-[4-[5-[(2,6-dioxo-3-piperidyl)amino]-2-pyridyl]-1-piperidyl]acetyl]piperazin-1-yl]phenyl]-4-fluoro-1-oxo-isoindolin-2-yl]-N-thiazol-2-yl-acetamide], the DC50 in assay [2] (Table 9B) and in assay [3] (Table 9B) was under 50 nM in each case. For `O=C1CCC(Nc2ccc(N3CCC(O)(CC(=O)N4CCN(c5ccc(-c6cc(F)c7c(c6)C(=O)N(C(C(=O)Nc6nccs6)c6ncn8c6CCC8)C7)cc5)CC4)CC3)c(F)c2)C(=O)N1` (stereo not shown) [Compound 83, 2-(6,7-dihydro-5H-pyrrolo[1,2-c]imidazol-1-yl)-2-[6-[4-[4-[2-[1-[4-[(2,6-dioxo-3-piperidyl)amino]-2-fluoro-phenyl]-4-hydroxy-4-piperidyl]acetyl]piperazin-1-yl]phenyl]-4-fluoro-1-oxo-isoindolin-2-yl]-N-thiazol-2-yl-acetamide], the DC50 in assay [2] (Table 9B) and in assay [3] (Table 9B) was under 50 nM throughout. In the case of `Cn1nc(N2CCC(=O)NC2=O)c2ccc(C3CCN(CC(=O)N4CCN(c5ccc(-c6cc(F)c7cn(C(C(=O)Nc8nccs8)c8ncn9c8CCC9)nc7c6)cn5)CC4)CC3)cc21` (stereo not shown) [Compound 67, 2-(6,7-dihydro-5H-pyrrolo[1,2-c]imidazol-1-yl)-2-[6-[6-[4-[2-[4-[3-(2,4-dioxohexahydropyrimidin-1-yl)-1-methyl-indazol-6-yl]-1-piperidyl]acetyl]piperazin-1-yl]-3-pyridyl]-4-fluoro-indazol-2-yl]-N-thiazol-2-yl-acetamide], the DC50 in assay [2] (Table 9A) was under 50 nM; in assay [3] (Table 9A), 50 to 150 nM. The matching figures for `O=C1CCC(Nc2ccc(C3CCN(CC(=O)N4CCN(Cc5ccc(-c6cc(F)c7c(c6)C(=O)N(C(C(=O)Nc6nccs6)c6ncn8c6CCC8)C7)cc5)CC4)CC3)cc2)C(=O)N1` (stereo not shown) [Compound 6, 2-(6,7-dihydro-5H-pyrrolo[1,2-c]imidazol-1-yl)-2-[6-[4-[[4-[2-[4-[4-[(2,6-dioxo-3-piperidyl)amino]phenyl]-1-piperidyl]acetyl]piperazin-1-yl]methyl]phenyl]-4-fluoro-1-oxo-isoindolin-2-yl]-N-thiazol-2-yl-acetamide]: under 50 nM and under 50 nM. With `Cn1nc(N2CCC(=O)NC2=O)c2ccc(C3CCN(CC(=O)N4CCN(c5ccc(-c6cc(F)c7c(c6)C(=O)N(C(C(=O)Nc6nccs6)c6ncn8c6C[C@@H](F)C8)C7)cc5)CC4)CC3)cc21` (stereo partly drawn) [Compound 45, 2-[6-[4-[4-[2-[4-[3-(2,4-dioxohexahydropyrimidin-1-yl)-1-methyl-indazol-6-yl]-1-piperidyl]acetyl]piperazin-1-yl]phenyl]-4-fluoro-1-oxo-isoindolin-2-yl]-2-[(6R)-6-fluoro-6,7-dihydro-5H-pyrrolo[1,2-c]imidazol-1-yl]-N-thiazol-2-yl-acetamide], the DC50 in assay [2] (Table 9A) and in assay [3] (Table 9A) was under 50 nM each time. Turning to `O=C1CCC(Nc2ccc(C3CCN(CC(=O)N4CCN(c5ccc(-c6cc(F)c7cn(C(C(=O)Nc8nccs8)c8ncn9c8CCC9)nc7c6)cn5)CC4)CC3)nc2)C(=O)N1` (stereo not shown) [Compound 66, 2-(6,7-dihydro-5H-pyrrolo[1,2-c]imidazol-1-yl)-2-[6-[6-[4-[2-[4-[5-[(2,6-dioxo-3-piperidyl)amino]-2-pyridyl]-1-piperidyl]acetyl]piperazin-1-yl]-3-pyridyl]-4-fluoro-indazol-2-yl]-N-thiazol-2-yl-acetamide], the DC50 in assay [2] (Table 9A) and in assay [3] (Table 9A) was under 50 nM each time. On to `O=C1CC[C@H](Nc2ccc(C3CCN(CC(=O)N4CCC(n5cc(-c6cc(F)c7c(c6)C(=O)N(C(C(=O)Nc6nccs6)c6ncn8c6CCC8)C7)nn5)CC4)CC3)cc2)C(=O)N1` (stereo partly drawn) [Compound 30, 2-(6,7-Dihydro-5H-pyrrolo[1,2-c]imidazol-1-yl)-2-(6-(1-(1-(2-(4-(4-(((S)-2,6-dioxopiperidin-3-yl)amino)phenyl)piperidin-1-yl)acetyl)piperidin-4-yl)-1H-1,2,3-triazol-4-yl)-4-fluoro-1-oxoisoindolin-2-yl)-N-(thiazol-2-yl)acetamide], for which the DC50 in assay [2] (Table 9A) and in assay [3] (Table 9A) was under 50 nM in each case.
